Measured values as given in patent US11096923B2, “Pharmaceutical composition containing polymyxin B/trimethoprim based therapeutics” (University of Rochester, priority 2016, dated 2021).
Where two headings read alike, the source gives them in different places.

Key:
P. aeruginosa = assay: MIC of clinical P. aeruginosa ocular isolates (antibiotic susceptibility profiles); assay type: cell-based, Pseudomonas aeruginosa; conditions: for MIC: Pseudomonas aeruginosa, read-out: Minimum Inhibitory Concentration
Source text: A series of genotyping and biological assays were used as a preliminary means to evaluate the clonality of clinical P. aeruginosa isolates collected, as follows. Genomic DNA was purified from each isolate using Qiagen DNeasy kits (Hilden, Germany) and used as a template for polymerase chain reactions to detect the presence of the virulence factors exoS, exoY, exoU, exoT, and perV using previously published primers (Table 1). See Allewelt M, Coleman F T, Grout M, Priebe G P, Pier G B. Acquisition of expression of the Pseudomonas aeruginosa ExoU cytotoxin leads to increased bacterial virulence in a murine model of acute pneumonia and systemic spread. Infection and immunity 2000; 68:3998-4004, Lomholt J A, Poulsen K, Kilian M. Epidemic population structure of Pseudomonas aeruginosa: evidence for a clone that is pathogenic to the eye and that has a distinct combination of virulence factors. Infection and immunity 2001; 69, and Ledbetter E C, Mun J J, Kowbel D, Fleiszig S M. Pathogenic phenotype and genotype of Pseudomonas aeruginosa isolates from spontaneous canine ocular infections. Investigative ophthalmology & visual science 2009; 50. […] See Institute C. Performance Standards for Antimicrobial Susceptibility Testing: Twenty-fifth Informational Supplement. Each isolate's ability to form biofilms was quantified. To do so, wells of a polystyrene plate containing 72-hour established biofilms were washed with 0.8% NaCl to remove non adherent cells and stained with crystal violet. To quantify biofilm staining, plates were washed 3 times with H2O, stain was suspended in 30% glacial acetic acid and the optical density (OD600nm) of each well was determined using an automated plate reader, as previously described. See Jacobs A C, Blanchard C E, Catherman S C, Dunman P M, Murata Y. An ribonuclease T2 family protein modulates Acinetobacter baumannii abiotic surface colonization. PloS one 2014; 9.

S. aureus UAMS-1 = assay: Selleck library screen in presence of sub-inhibitory polymyxin B/trimethoprim; assay type: cell-based, Staphylococcus aureus; parameters: key: Growth (+); no growth (−); conditions: for S. aureus growth, 5 μM: drug 5 μM in presence of 1.2 μg ml^−1 polymyxin B/trimethoprim; for S. aureus growth, 50 μM: drug 50 μM in presence of 1.2 μg ml^−1 polymyxin B/trimethoprim
Protocol: (§1) To identify agents that potentiate the antimicrobial activity of polymyxin B/trimethoprim we first determined the highest concentration of the polymyxin B/trimethoprim combination that allowed growth of P. aeruginosa strain PAO1 and S. aureus strain UAMS-1.
For Selleck library screening, individual wells of 96-well microtiter plates containing 88 μl of fresh media were inoculated with approximately 10^5 CFUs of P. aeruginosa strain PAO1 or S. aureus UAMS-1. Next, 2 μl of polymyxin B/trimethoprim was added to a final concentration of 0.2 μg ml^−1 or 1.25 μg ml^−1 for PA01 and UAMS-1, respectively. Library members were then added at either 5 μM or 50 μM final concentration. Plates were incubated at 37° C. for 16 hours and hits were identified as wells with no visible growth.
To do so, 10^5 CFUs of S. aureus strain UAMS-1 were inoculated in individual wells of a microtiter plate supplemented with 1.2 μg ml^−1 of polymyxin B/trimethoprim, (0.25×MIC). Library members were added at low (5 μM) or high (50 μM) concentrations and then scored for agents that inhibited growth following overnight incubation. Such agents were expected to represent compounds that display antimicrobial activity on their own and/or that potentiate the antimicrobial activity of polymyxin B/trimethoprim.

P. aeruginosa PAO1 = assay: as above; assay type: cell-based, Pseudomonas aeruginosa; parameters: key: Growth (+); no growth (−); conditions: for P. aeruginosa growth, 5 μM: drug 5 μM in presence of 0.2 μg ml^−1 polymyxin B/trimethoprim; for P. aeruginosa growth, 50 μM: drug 50 μM in presence of 0.2 μg ml^−1 polymyxin B/trimethoprim
Protocol: as §1
For Selleck library screening, individual wells of 96-well microtiter plates containing 88 μl of fresh media were inoculated with approximately 10^5 CFUs of P. aeruginosa strain PAO1 or S. aureus UAMS-1. Next, 2 μl of polymyxin B/trimethoprim was added to a final concentration of 0.2 μg ml^−1 or 1.25 μg ml^−1 for PA01 and UAMS-1, respectively. Library members were then added at either 5 μM or 50 μM final concentration. Plates were incubated at 37° C. for 16 hours and hits were identified as wells with no visible growth. […]

P. aeruginosa biofilm = tested on: P. aeruginosa biofilm; parameters: key: Killing (+) of established biofilms; conditions: established biofilms; adenylate kinase reporter; Blanchard et al., 2016; cited from earlier work
[1] = P. aeruginosa ocular isolate RW01 (cornea)
[2] = P. aeruginosa ocular isolate RW02 (cornea)
[3] = P. aeruginosa ocular isolate RW03 (cornea)
[4] = P. aeruginosa ocular isolate RW04 (conjunctiva)
[5] = P. aeruginosa ocular isolate RW05 (cornea)
[6] = P. aeruginosa ocular isolate RW06 (cornea)
[7] = P. aeruginosa ocular isolate RW07 (cornea)

Row | Molecule | S. aureus growth, 5 μM (S. aureus UAMS-1) | S. aureus growth, 50 μM (S. aureus UAMS-1) | P. aeruginosa growth, 5 μM (P. aeruginosa PAO1) | P. aeruginosa growth, 50 μM (P. aeruginosa PAO1) | P. aeruginosa biofilm AK Signal (P. aeruginosa biofilm) | also measured
1 | CC1(C)S[C@@H]2[C@H](NC(=O)[C@H](N)c3ccccc3)C(=O)N2[C@H]1C(=O)O [Ampicillin, ampicillin] |  |  |  |  |  | MIC (P. aeruginosa; [1]): 50 µg/mL; MIC (P. aeruginosa; [2]): 50 µg/mL; MIC (P. aeruginosa; [3]): 50 µg/mL; MIC (P. aeruginosa; [4]): 50 µg/mL; MIC (P. aeruginosa; [5]): 100 µg/mL; MIC (P. aeruginosa; [6]): 100 µg/mL; MIC (P. aeruginosa; [7]): 50 µg/mL
2 | CO/N=C(\C(=O)N[C@@H]1C(=O)N2C(C(=O)O)=C(CSc3nc(=O)c(=O)[nH]n3C)CS[C@H]12)c1csc(N)n1 [Ceftriaxone, ceftriaxone] |  |  |  |  |  | MIC (P. aeruginosa; [1]): 13 µg/mL; MIC (P. aeruginosa; [2]): 26 µg/mL; MIC (P. aeruginosa; [3]): 26 µg/mL; MIC (P. aeruginosa; [4]): 26 µg/mL; MIC (P. aeruginosa; [5]): 13 µg/mL; MIC (P. aeruginosa; [6]): 52 µg/mL; MIC (P. aeruginosa; [7]): 26 µg/mL
3 | NC1CCN(c2c(F)cc3c(=O)c(C(=O)O)cn(C4CC4)c3c2Cl)C1 (stereo not drawn) [Clinafloxacin, clinafloxacin] | − | − | − | − | + | 
4 | CN1C[C@@H]2C[C@H]1CN2c1cc2c(cc1F)c(=O)c(C(=O)O)cn2C1CC1 [Danofloxacin, danofloxacin] | − | − | − | − | + | 
5 | CCN1CCN(c2cc3c(cc2F)c(=O)c(C(=O)O)cn3C2CC2)CC1 [Enrofloxacin, enrofloxacin] | − | − | − | − | + | 
6 | C[C@H]1COc2c(N3CCN(C)CC3)c(F)cc3c(=O)c(C(=O)O)cn1c23 [Levofloxacin, levofloxacin] | + | − | − | − |  | 
7 | CCn1cc(C(=O)O)c(=O)c2cc(F)c(N3CCNC(C)C3)c(F)c21 (stereo not drawn) [Lomefloxacin, lomefloxacin] | − | − | − | − | + | 
8 | CC1CCc2c(N3CCC(O)CC3)c(F)cc3c(=O)c(C(=O)O)cn1c23 (stereo not drawn) [Nadifloxacin, nadifloxacin] | − | − | − | − | + | 
9 | CCn1cc(C(=O)O)c(=O)c2cc(F)c(N3CCN(C)CC3)cc21 [Pefloxacin, pefloxacin] | − | − | − | − | + | 
10 | CO[C@H]1/C=C/O[C@@]2(C)Oc3c(C)c(O)c4c(c3C2=O)C2=NC3(CCN(CC(C)C)CC3)NC2=C(NC(=O)/C(C)=C\C=C\[C@H](C)[C@H](O)[C@@H](C)[C@@H](O)[C@@H](C)[C@H](OC(C)=O)[C@@H]1C)C4=O [Rifabutin, rifabutin] | − | − | − | − | + | 
11 | CO[C@H]1/C=C/O[C@@]2(C)Oc3c(C)c(O)c4c(O)c(c(/C=N/N5CCN(C6CCCC6)CC5)c(O)c4c3C2=O)NC(=O)/C(C)=C\C=C\[C@H](C)[C@H](O)[C@@H](C)[C@@H](O)[C@@H](C)[C@H](OC(C)=O)[C@@H]1C [Rifapentine, rifapentine] | − | − | − | − | + | 
12 | CO[C@H]1/C=C/O[C@@]2(C)Oc3c(C)c(O)c4c(O)c(c5c(nc6cc(C)ccn65)c4c3C2=O)NC(=O)/C(C)=C\C=C\[C@H](C)[C@H](O)[C@@H](C)[C@@H](O)[C@@H](C)[C@H](OC(C)=O)[C@@H]1C [Rifaximin, rifaximin] | − | − | − | − | + | 
13 | O=C(O)c1cn(-c2ccc(F)cc2)c2cc(N3CCNCC3)c(F)cc2c1=O [Sarafloxacin, sarafloxacin] | − | − | − | − | + | 
14 | N[C@@H]1CN(c2c(F)cc3c(=O)c(C(=O)O)cn([C@@H]4C[C@@H]4F)c3c2Cl)CC12CC2 [Sitafloxacin, sitafloxacin] | − | − | − | − | + | 
15 | gentamycin |  |  |  |  |  | Minimum Inhibitory Concentration (P. aeruginosa; [1]): 0.24 µg/mL; Minimum Inhibitory Concentration (P. aeruginosa; [2]): 0.24 µg/mL; Minimum Inhibitory Concentration (P. aeruginosa; [3]): 0.12 µg/mL; Minimum Inhibitory Concentration (P. aeruginosa; [4]): 0.48 µg/mL; Minimum Inhibitory Concentration (P. aeruginosa; [5]): 0.48 µg/mL; Minimum Inhibitory Concentration (P. aeruginosa; [6]): 0.48 µg/mL; Minimum Inhibitory Concentration (P. aeruginosa; [7]): 0.24 µg/mL
16 | neomycin |  |  |  |  |  | Minimum Inhibitory Concentration (P. aeruginosa; [1]): 9.8 µg/mL; Minimum Inhibitory Concentration (P. aeruginosa; [2]): 9.8 µg/mL; Minimum Inhibitory Concentration (P. aeruginosa; [3]): 9.8 µg/mL; Minimum Inhibitory Concentration (P. aeruginosa; [4]): 19.6 µg/mL; Minimum Inhibitory Concentration (P. aeruginosa; [5]): 1 µg/mL; Minimum Inhibitory Concentration (P. aeruginosa; [6]): 9.8 µg/mL; Minimum Inhibitory Concentration (P. aeruginosa; [7]): 1 µg/mL
